Values joined by “and” are separate entries in the source; they are usually repeats but may differ in a detail not shown here. Equal values may be shown once.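 96-well plates; 48 h exposure; 5 concentrations. Endpoints by linear interpolation between flanking doses. Not reached: highest tested concentration assigned. Abbreviation: GI50, concentration required for 50% inhibition of growth. The concentration for full growth arrest is given as TGI.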
Key:
Test in all cases: inhibition of tumour cell growth, NCI panel, 48 h
786-0 renal = test system: 786-0 renal
HCC-2998 colon = test system: HCC-2998 colon
MALME-3M melanoma = test system: MALME-3M melanoma
RXF 393 renal = test system: RXF 393 renal
UO-31 renal = test system: UO-31 renal
SR leukemia = test system: SR leukemia
SK-MEL-2 melanoma = test system: SK-MEL-2 melanoma
MDA-MB-231 breast = test system: MDA-MB-231 breast
NCI/ADR-RES ovarian = test system: NCI/ADR-RES ovarian
MDA-N = test system: MDA-N

SMILES | TGI (786-0 renal) | TGI (HCC-2998 colon) | TGI (MALME-3M melanoma) | TGI (RXF 393 renal) | TGI (UO-31 renal) | TGI (SR leukemia) | TGI (SK-MEL-2 melanoma) | TGI (MDA-MB-231 breast) | TGI (NCI/ADR-RES ovarian) | TGI (MDA-N) | GI50 (NCI/ADR-RES ovarian) | GI50 (HCC-2998 colon) | GI50 (SK-MEL-2 melanoma)
CCOc1ccc(/C=C(\Cl)c2ccc(OC)c(OC)c2)cc1 | > 100 µM | > 100 µM | > 100 µM | 65.5 µM | > 100 µM | 91.4 µM | – | – | – | – | – | – | –
C=C1C(=O)OC2(C)C3CCC(C3)C12 (stereo not given) | > 100 µM | > 100 µM | > 100 µM | – | > 100 µM | > 100 µM | > 100 µM | – | – | – | – | – | –
CCOC(=O)Nc1c(C#N)[n+]([O-])c2cc(Cl)c(Cl)cc2[n+]1[O-] | 41.7 µM | – | 37.6 µM | 33 µM | 31.4 µM | 24.3 µM | 48 µM | 35.8 µM | 52.2 µM | 43 µM | – | – | –
c1ccc(C2=Nc3nc4ccccc4n3C(c3ccccc3)C2)cc1 (stereo not given) | > 100 µM | – | > 100 µM | > 100 µM | > 100 µM | > 100 µM | > 100 µM | > 100 µM | > 100 µM | > 100 µM | – | – | –
O=C(Nc1nc2c(=O)[nH]cnc2s1)c1ccccc1 | > 100 µM | > 100 µM | > 100 µM | > 100 µM | > 100 µM | 61.9 µM | > 100 µM | – | > 100 µM | – | – | – | –
Cc1ccc(OCC2OC(n3cnc4c(N(C)C)nc(Br)nc43)CC2Oc2ccc(C)cc2)cc1 (stereo not given) | > 100 µM | > 100 µM | > 100 µM | – | > 100 µM | – | > 100 µM | > 100 µM | > 100 µM | > 100 µM | – | – | –
C=CCOCn1cnc2c(N)ncnc21 | > 100 µM | > 100 µM | > 100 µM | – | > 100 µM | > 100 µM | > 100 µM | > 100 µM | > 100 µM | > 100 µM | – | – | –
COc1ccc(S(=O)(=O)O)cc1-n1nc(C(=O)Nc2ccccc2)n[n+]1-c1cc(S(=O)(=O)[O-])ccc1OC | > 100 µM | > 100 µM | > 100 µM | > 100 µM | > 100 µM | > 100 µM | – | > 100 µM | > 100 µM | > 100 µM | – | – | –
O=C(Nc1nc2ccccc2n1Cc1ccccc1)NC12CC3CC(CC(C3)C1)C2 | 92.9 µM | > 100 µM | > 100 µM | 93.8 µM | > 100 µM | > 100 µM | > 100 µM | – | – | – | – | – | –
NC(=O)c1nnc2cc(F)ccc2c1N | > 100 µM | > 100 µM | > 100 µM | – | > 100 µM | > 100 µM | > 100 µM | > 100 µM | > 100 µM | > 100 µM | – | – | –
COC(=O)c1cc(NC(=O)c2cc(NC(=O)c3cc([N+](=O)[O-])cn3C)cn2C)cn1C | > 100 µM | – | > 100 µM | > 100 µM | > 100 µM | – | > 100 µM | > 100 µM | > 100 µM | > 100 µM | – | – | –
O=c1[nH]nc(-c2ccccc2)n1/N=C/c1ccncc1 | > 100 µM | > 100 µM | > 100 µM | > 100 µM | > 100 µM | > 100 µM | – | – | > 100 µM | > 100 µM | – | – | –
CC(C)CCC[C@@H](C)[C@H]1CCC2C3CC=C4C[C@@H](Oc5c6ccccc6nc6ccccc56)CCC4C3CCC21 (stereo not given in full) | > 50 µM | – | > 50 µM | > 50 µM | > 50 µM | – | > 50 µM | > 50 µM | > 50 µM | > 50 µM | – | – | –
O=c1/c(=C\c2ccccc2)sc2n1C(c1ccccc1)C1(O)CCCCC1N=2 (stereo not given) | > 100 µM | > 100 µM | > 100 µM | – | > 100 µM | > 100 µM | > 100 µM | > 100 µM | – | > 100 µM | – | – | –
O=C(N=C1SCCN1C(=O)C(C(F)(F)F)C(F)(F)F)C(C(F)(F)F)C(F)(F)F | > 100 µM | > 100 µM | > 100 µM | > 100 µM | > 100 µM | > 100 µM | > 100 µM | > 100 µM | > 100 µM | – | – | – | –
CCCCCCCCCCCCCCCCCCNc1ccn(C2OC(COP(=O)(O)OCC3CCC(n4cnc5c(=O)[nH]cnc54)O3)C(O)C2O)c(=O)n1 (stereo not given) | > 100 µM | – | > 100 µM | > 100 µM | > 100 µM | – | > 100 µM | – | > 100 µM | > 100 µM | – | – | –
CCOC(=O)Oc1cc2c(c(OC)c1OC)-c1ccc(SC)c(=O)cc1C(NC(=O)C(F)(F)F)CC2 (stereo not given) | 13 µM | – | – | < 0.001 µM | 75.6 µM | 5.4 µM and 15.6 µM | 51.4 µM | – | – | < 0.001 µM | 0.023 µM | 0.0146 µM | 0.00303 µM
COC(=O)C1=C(C)NC2(O)C=CC(=O)C3C(=O)N(c4ccccc4)C(=O)C132 (stereo not given) | > 100 µM | > 100 µM | 88 µM | > 100 µM | > 100 µM | > 100 µM | > 100 µM | > 100 µM | > 100 µM | – | – | – | –
Cn1c(C(C#N)c2nc(Cl)ncc2Br)nc2ccccc21 (stereo not given) | > 100 µM | – | > 100 µM | > 100 µM | > 100 µM | – | – | > 100 µM | > 100 µM | > 100 µM | – | – | –
Cc1cc(CNC(=O)OCc2ccccc2)c(C)c2c1Oc1ccccc1O2 | 35.6 µM | > 100 µM | > 100 µM | 32.6 µM | > 100 µM | > 100 µM | > 27.3 µM | > 60.5 µM | > 71.4 µM | – | – | – | –
CCCCCC(=O)c1ccc2[nH]c3c(C)cc([N+](=O)[O-])c(C)c3c2c1 | > 100 µM | > 100 µM | > 100 µM | – | > 100 µM | > 100 µM | > 100 µM | – | – | – | – | – | –
NNc1nc2ccccc2c(=O)n1NC(=O)C(=O)Nc1cccc(C(F)(F)F)c1 | > 100 µM | > 100 µM | > 100 µM | > 100 µM | > 100 µM | – | > 100 µM | > 100 µM | > 100 µM | > 100 µM | – | – | –
C=CC1ON(Cc2ccccc2)CCc2cc(OC)c(OC)cc21 (stereo not given) | > 100 µM | > 100 µM | > 100 µM | – | > 100 µM | > 100 µM | – | > 100 µM | > 100 µM | 89.5 µM | – | – | –
CCC1C(c2cccc(OC)c2O)c2cc3c(cc2OC1N1CCCC1)OCO3 (stereo not given) | 41.2 µM | 21.9 µM | – | – | 39.5 µM | 50.4 µM | 43.5 µM | – | 54.7 µM | 19.7 µM | – | – | –
Cc1ccc(S(=O)(=O)/N=C(\NN)Nc2ccc(Cl)cc2)cc1 | > 100 µM | – | – | > 100 µM | > 100 µM | > 100 µM | > 100 µM | > 100 µM | > 100 µM | > 100 µM | – | – | –

Source: PubChem BioAssay (NCI)
